Data from US4957940A, “Bicyclo heptane and bicyclo octane substituted inhibitors of cholesterol synthesis” (Warner-Lambert Company, priority 1989, dated 1990).

System: biosynthesis of cholesterol
Assay: CSI screen: inhibition of cholesterol biosynthesis (14C-acetate incorporation into nonsaponifiable lipid by rat liver homogenate)
Format: biochemical
Details: 50% inhibition of sterol synthesis over a one-hour period
Experimental: The ability of compounds of the present invention to inhibit the biosynthesis of cholesterol was measured by a method (designated CSI screen) which utilizes the procedure described by R. E. Dugan, et al, Archiv. Biochem. Biophys., (1972), 152, 21-27. In this method, the level of HMG-CoA enzyme activity in standard laboratory rats is increased by feeding the rats a chow diet containing 5% cholestryramine for four days, after which the rats are sacrificed.
The rat livers are homogenized, and the incorporation of […] into nonsaponifiable lipid by the rat liver homogenate is measured. The micromolar concentration of compound required for 50% inhibition of sterol synthesis over a one-hour period is measured, and expressed as an IC50 value.

Compound: C=C1CC2(C)CC1C(c1ccccc1)=C2/C=C/[C@@H]1C[C@@H](O)CC(=O)O1 (relative stereo)
- IC50: 440 nM
